Source: patent US9328138B2 (priority 2011, dated 2016)
Structures can show the parent of a compound that is named as a salt.

What was measured:
[1] = biological target: T1, HCV genotype 1b (BK) NS3 modified enzyme with a R155K mutation (Hepatitis C virus genotype 1b, UniProt P26663, R1181K); experiment: HCV NS3 protease time-resolved fluorescence (TRF) assay, genotype 1b R155K; type: biochemical; conditions: Ki 1b R155K
T1 construct: HCV genotype 1b (BK) NS3 modified enzyme
Method in brief: (§1)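 Inhibitor titrations are mixed with NS3/NS4A in pH 7.5 HEPES buffer containing 10 mM DTT and 15% glycerol for 10 min before substrate (25 nM final) is added. After 6 h at room temperature, delayed fluorescence is read and fitted to a four-parameter curve for IC50.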

[2] = biological target: HCV NS3 protease genotype 3a (3A-1) (Hepatitis C virus genotype 3a, UniProt Q81258); experiment: HCV NS3 protease time-resolved fluorescence (TRF) assay, genotype 3a; type: biochemical; conditions: Ki 3a
Method in brief: as §1

[3] = first of two values printed in the cell (not explained)
[4] = second of two values printed in the cell (not explained)
[5] = genotype 1b (BK) NS3 R155K, single value

Compound	Ki [1, 3]	Ki [1, 4]	Ki [2]	Ki [1, 5]
C=C[C@@H]1C[C@]1(NC(=O)[C@@H]1C[C@@H]2CN1C(=O)[C@H](C1CCCCC1)NC(=O)O[C@@H]1C[C@H]1CCCCCc1c(nc3ccccc3c1OCCCN1CC(F)(F)C1)O2)C(=O)NS(=O)(=O)C1(C)CC1 [Example 249, (1aR,5S,8S,10R,22aR)-5-cyclohexyl-17-[3-(3,3-difluoroazetidin-1-yl)propoxy]-N-[(1R,2S)-2-ethenyl-1-{[(1-methylcyclopropyl)sulfonyl]carbamoyl}cyclopropyl]-3,6-dioxo-1,1a,3,4,5,6,9,10,18,19,20,21,22,22a-tetradecahydro-8H-7,10-methanocyclopropa[18,19][1,10,3,6]dioxadiazacyclononadecino[11,12-b]quinoline-8-carboxamide]	0.026 nM	0.5 nM	7.55 nM	
C=C[C@@H]1C[C@]1(NC(=O)[C@@H]1C[C@@H]2CN1C(=O)[C@H](C(C)(C)C)NC(=O)O[C@@H]1C[C@H]1CCCCCc1c(nc3ccccc3c1OCCCN1CCC(OC)CC1)O2)C(=O)NS(=O)(=O)C1(C)CC1 [Example 156, (1aR,5S,8S,10R,22aR)-5-tert-butyl-N-[(1R,2S)-2-ethenyl-1-{[(1-methylcyclopropyl)sulfonyl]carbamoyl}cyclopropyl]-17-[3-(4-methoxypiperidin-1-yl)propoxy]-3,6-dioxo-1,1a,3,4,5,6,9, 10,18,19,20,21,22,22a-tetradecahydro-8H-7,10-methanocyclopropa[18,19] [1,10,3,6]dioxadiaza cyclononadecino[11,12-b]quinoline-8-carboxamide]			0.84 nM	0.079 nM
C=C[C@@H]1C[C@]1(NC(=O)[C@@H]1C[C@@H]2CN1C(=O)[C@H](C(C)(C)C)NC(=O)O[C@@H]1C[C@H]1CCCCCc1c(nc3ccccc3c1OC1C3COCC1CN(C(=O)OC(C)(C)C)C3)O2)C(=O)NS(=O)(=O)C1(C)CC1 (single isomer, unassigned) [Example 255]	0.12 nM	2.21 nM	59.1 nM	
C=C[C@@H]1CC1(NC(=O)[C@@H]1C[C@@H]2CN1C(=O)[C@H](C(C)(C)C)NC(=O)O[C@@H]1C[C@H]1CCCCCc1c(nc3ccccc3c1OC1C3CNCC1COC3)O2)C(=O)NS(=O)(=O)C1(C)CC1 (single isomer, unassigned) [Example 258, trifluoroacetate]	0.012 nM	0.079 nM	2.75 nM	
C=C[C@@H]1C[C@]1(NC(=O)[C@@H]1C[C@@H]2CN1C(=O)[C@H](C1CCCC1)NC(=O)O[C@@H]1CCC[C@H]1CC/C=C/Cc1c(nc3ccccc3c1O)O2)C(=O)NS(=O)(=O)C1CC1 [Example 17, (3aR,7S,10S,12R,21E,24aS)-7-cyclopentyl-N-{(1R,2S)-1-[(cyclopropylsulfonyl)carbamoyl]-2-ethenylcyclopropyl}-19-hydroxy-5,8-dioxo-1,2,3,3a,5,6,7,8,11,12,20,23,24,24a-tetradecahydro-10H-9,12-methanocyclopenta[18,19][1,10,3,6]dioxadiazacyclononadecino[11,12-b]quinoline-10-carboxamide]			0.45 nM	< 0.016 nM
C=C[C@@H]1C[C@]1(NC(=O)[C@@H]1C[C@@H]2CN1C(=O)[C@H](C(C)(C)C)NC(=O)O[C@@H]1CCC[C@H]1CCCCCc1c(nc3ccccc3c1OCCN1CCCC1)O2)C(=O)NS(=O)(=O)C1(COC)CC1 [Example 102, (3aR,7S,10S,12R,24aR)-7-tert-butyl-N-[(1R,2S)-2-ethenyl-1-({[1-(methoxymethyl)cyclopropyl]sulfonyl}carbamoyl)cyclopropyl]-5,8-dioxo-19-[2-(pyrrolidin-1-yl)ethoxy]-1,2,3,3a, 5,6,7,8,11,12,20,21,22,23,24,24a-hexadecahydro-10H-9,12-methanocyclopenta[18,19] [1,10,3,6]dioxadiazacyclo-nonadecino[11,12-b]quinoline-10-carboxamide]			3.2 nM	0.21 nM
C=C[C@@H]1C[C@]1(NC(=O)[C@@H]1C[C@@H]2CN1C(=O)[C@H](C(C)(C)C)NC(=O)O[C@@H]1C[C@H]1CCCCCc1c(nc3ccccc3c1OCCCNCCCCc1ccccc1)O2)C(=O)NS(=O)(=O)C1(C)CC1 [Example 198, (1aR,5S,8S,10R,22aR)-5-tert-butyl-N-[(1R,2S)-2-ethenyl-1-{[(1-methylcyclopropyl)sulfonyl]carbamoyl}cylcopropoyl]-3,6-dioxo-17-{3-[(4-phenylbutyl)amino]propoxy}-1,1a,3,4,5,6,9,10,18,19,20,21,22,22a-tetra decahydro-8H-7,10-methanocyclopropa[18,19][1,10,3,6] dioxadiazacyclononadecino[11,12-b] quinoline-8-carboxamide]			0.77 nM	0.05 nM
C=C[C@@H]1C[C@]1(NC(=O)[C@@H]1C[C@@H]2CN1C(=O)[C@H](C(C)(C)C)NC(=O)O[C@@H]1CCC[C@H]1CC/C=C/Cc1c(nc3ccccc3c1OCCCN1CCCC1=O)O2)C(=O)NS(=O)(=O)C1(C)CC1 [Example 89, (3aR,7S,10S,12R,21E,24aS)-7-tert-butyl-N-[(1R,2S)-2-ethenyl-1-{[(1-methycyclopropyl)sulfonyl]carbamoyl}cyclopropyl]-5,8-dioxo-19-[3-(2-oxopyrrolidin-1-yl)propoxy]-1,2,3,3a,5,6,7,8,11,12,20,23,24,24a-tetradecahydro-10H-9,12-methano-cyclopenta[18,19][1,10,3,6]dioxa diazacyclononadecino[11,12-b] quinoline-10-carboxamide]			0.32 nM	0.07 nM
C=C[C@@H]1C[C@]1(NC(=O)[C@@H]1C[C@@H]2CN1C(=O)[C@H](C1CCCC1)NC(=O)O[C@@H]1CCC[C@H]1CC/C=C/Cc1c(nc3ccccc3c1OCCCNC(=O)OC(C)(C)C)O2)C(=O)NS(=O)(=O)C1CC1 [Example 84, tert-butyl (3-{[(3aR,7S,10S,12R,21E,24aS)-7-cyclopentyl-10-({(1R,2S)-1-[(cyclopropylsulfonyl)carbamoyl]-2-ethenylcyclopropyl}carbamoyl)-5,8-dioxo-1,2,3,3a,5,6,7,8,11,12, 20,23,24,24a-tetradecahydro-10H-9,12-methanocyclopenta[18,19][1,10,3,6]dioxadiazacyclononadecino [11,12-b]quinolin-19-yl]oxy}propyl)carbamate]			7.2 nM	0.24 nM
C=C[C@@H]1C[C@]1(NC(=O)[C@@H]1C[C@@H]2CN1C(=O)[C@H](C(C)(C)C)NC(=O)O[C@]1(C)C[C@H]1CCCCCc1c(nc3ccccc3c1OCCN1CCOCC1)O2)C(=O)NS(=O)(=O)C1CC1 [Example 100, (1aR,5S,8S,10R,22aR)-5-tert-butyl-N-{(1R,2S)-1-[(cyclopropylsulfonyl)carbamoyl]-2-ethenylcyclopropyl}-1a-methyl-17-[2-(morpholin-4-yl)ethoxy]-3,6-dioxo-1,1a,3,4,5,6,9, 10,18,19,20,21,22,22a-tetradecahydro-8H-7,10-methanocyclopropa[18,19] [1,10,3,6]dioxadiazacyclonona decino[11,12-b]quinoline-8-carboxamide]			2 nM	0.24 nM
C=C[C@@H]1C[C@]1(NC(=O)[C@@H]1C[C@@H]2CN1C(=O)[C@H](C1CCCCC1)NC(=O)O[C@@H]1C[C@H]1CCCCCc1c(nc3ccccc3c1O[C@@H]1CCN(C(=O)OC(C)(C)C)C[C@@H]1F)O2)C(=O)NS(=O)(=O)C1(C)CC1 [Example 292, tert-butyl (3S,4R)-4-{[(1aR,5S,8S,10R,22aR)-5-cyclohexyl-8-{[(1R,2S)-2-ethenyl-1-{[(1-methylcyclopropyl)sulfonyl]carbamoyl}cyclopropyl]carbamoyl}-3,6-dioxo-1,1a,3,4,5,6,9,10,18,19,20,21,22,22a-tetradecahydro-8H-7,10-methanocyclopropa[18,19][1,10,3,6]dioxadiazacyclononadecino[11,12-b]quinolin-17-yl]oxy}-3-fluoropiperidine-1-carboxylate]	0.12 nM	0.733 nM	49.4 nM	
C=C[C@@H]1C[C@]1(NC(=O)[C@@H]1C[C@@H]2CN1C(=O)[C@H](C(C)(C)C)NC(=O)O[C@@H]1C[C@H]1CCCCCc1c(nc3ccccc3c1OCCCCN1CCOCC1)O2)C(=O)NS(=O)(=O)C1(C)CC1 [Example 150, (1aR,5S,8S,10R,22aR)-5-tert-butyl-N-[(1R,2S)-2-ethenyl-1-{[(1-methylcyclopropyl)sulfonyl]carbamoyl}cyclopropyl]-17-[4-(morpholin-4-yl)butoxy]-3,6-dioxo-1,1a,3,4,5,6,9,10,18,19,20,21, 22,22a-tetradecahydro-8H-7,10-methanocyclopropa[18,19][1,10,3,6] dioxadiazacyclononadecino [11,12-b]quinoline-8-carboxamide]			1.3 nM	0.12 nM
C=CC1C[C@]1(NC(=O)[C@@H]1C[C@@H]2CN1C(=O)[C@H](C(C)(C)C)NC(=O)O[C@@H]1CCC[C@H]1CCCCCc1c(nc3ccccc3c1OCCN1CCOCC1)O2)C(=O)NS(=O)(=O)C1(COCCOC)CC1 (stereo partly drawn) [Example 65, (3aR,7S,10S,12R, 24aR)-7-tert-butyl-N-{(1R,2S)-2-ethenyl-1-[({1-[(2-methoxyethoxy)methyl]cyclopropyl}sulfonyl)carbamoyl]cyclopropyl}-19-[2-(morpholin-4-yl)ethoxy]-5,8-dioxo-1,2,3,3a,5,6,7,8,11, 12,20,21,22,23,24, 24a-hexadecahydro-10H-9,12-methanocyclopenta [18,19][1,10,3,6] dioxadiaza-cyclononadecino [11,12-b]quinoline-10-carboxamide]			16 nM	0.56 nM
